Target: T1, GPR40 (Homo sapiens, UniProt O14842)
T1 construct: expressed in transfected cells; host or cells: HEK293 cells stably expressing GPR40 (Hygromycin selection)
Assay: IP1 accumulation assay in HEK293 cells stably expressing GPR40
Assay type: cell-based
Method in brief: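 HEK293 cells stably expressing human GPR40 were incubated with compounds (10-point, 3-fold dilution series) for 2 h at 37 °C, then IP1 was detected by HTRF (665/615 nm ratio). Effect was normalised to DMSO blank and AMG-1638 as 100%, and EC50 was derived from dose curves.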

[1] = IP1 accumulation, HEK293 cells stably expressing GPR40, 2 hours at 37° C., % effect relative to AMG-1638, table of Biological Example 1
[2] = Tables A-1a to A-7b (structure-property relationship), obtained by methods of Biological Example 1
[3] = Table A-8 (additional examples), obtained by methods of Biological Example 1

T1 sequence (O14842 whole entry): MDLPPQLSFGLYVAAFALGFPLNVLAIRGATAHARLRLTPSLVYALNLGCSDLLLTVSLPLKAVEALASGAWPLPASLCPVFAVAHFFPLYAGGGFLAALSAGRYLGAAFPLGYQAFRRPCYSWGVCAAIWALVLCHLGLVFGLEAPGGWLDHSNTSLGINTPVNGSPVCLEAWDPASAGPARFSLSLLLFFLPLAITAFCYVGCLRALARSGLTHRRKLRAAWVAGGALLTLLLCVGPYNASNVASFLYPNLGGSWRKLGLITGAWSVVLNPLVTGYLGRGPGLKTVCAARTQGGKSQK

Row | Structure (SMILES) | EC50 [1] | EC50 [2] | EC50 [3]
1 | COc1ccc(F)c(-c2ccc(COc3cccc([C@@H](CC(=O)O)C4CC4)c3)cc2CC(C)(C)Cn2cc(CCCCCCCCCCCCCC(=O)NCCCN(CC(=O)O)CC(=O)O)nn2)c1 [Example 106] | 696 nM |  | 
2 | COc1ccc(F)c(-c2ccc(COc3cccc([C@@H](CC(=O)O)C4CC4)c3)cc2CC(C)(C)Cn2cc(CCCCCCCCCCCCCC(=O)NCCC[N+](C)(CC(=O)O)CC(=O)O)nn2)c1 [Example 107] | 1310 nM |  | 
3 | COc1ccc(F)c(-c2ccc(COc3cccc([C@@H](CC(=O)O)C4CC4)c3)cc2CC(C)(C)Cn2cc(CCCCCCCCCCCCCCC(=O)NCCCN(CC(=O)O)CC(=O)O)nn2)c1 [Example 108] | 312 nM |  | 
4 | COc1ccc(F)c(-c2ccc(COc3cccc([C@@H](CC(=O)O)C4CC4)c3)cc2CC(C)(C)Cn2cc(CCCCCCCCCCCCCCC(=O)NCCC[N+](C)(CC(=O)O)CC(=O)O)nn2)c1 [Example 109] | > 1000 nM |  | 
5 | COc1ccc(C(=O)N(CC(C)(C)CCn2cc(CCCCCCCCC(=O)NCCN(CCC(=O)NCCN)CCC(=O)NCCN)nn2)c2cccc(C)n2)c(N2CCC(COc3cc([C@@H](CC(=O)O)C4CC4)ccn3)CC2)c1 [Example 110] | 618 nM | 618 nM | 
6 | COc1ccc(C(=O)N(CC(C)(C)CCn2cc(CCCCCCCCC(=O)NCC[N+](C)(CCC(=O)NCCN)CCC(=O)NCCN)nn2)c2cccc(C)n2)c(N2CCC(COc3cc([C@@H](CC(=O)O)C4CC4)ccn3)CC2)c1 [Example 111] | 307 nM | 307 nM | 
7 | COc1ccc(C(=O)N(CC(C)(C)CCn2cc(CCCCCCCCCCC(=O)NCCN(CCC(=O)NCCN)CCC(=O)NCCN)nn2)c2cccc(C)n2)c(N2CCC(COc3cc([C@@H](CC(=O)O)C4CC4)ccn3)CC2)c1 [Example 112] | 14.9 nM | 14.9 nM | 
8 | COc1ccc(C(=O)N(CC(C)(C)CCn2cc(CCCCCCCCCCC(=O)NCC[N+](C)(CCC(=O)NCCN)CCC(=O)NCCN)nn2)c2cccc(C)n2)c(N2CCC(COc3cc([C@@H](CC(=O)O)C4CC4)ccn3)CC2)c1 [Example 113] | 6.27 nM | 6.27 nM | 
9 | COc1ccc(C(=O)N(CC(C)(C)CCn2cc(CCCCCCCCCCCCC(=O)NCCN(CCC(=O)NCCN)CCC(=O)NCCN)nn2)c2cccc(C)n2)c(N2CCC(COc3cc([C@@H](CC(=O)O)C4CC4)ccn3)CC2)c1 [Example 114] | 0.42 nM | 0.42 nM | 0.42 nM
10 | COc1ccc(C(=O)N(CC(C)(C)CCn2cc(CCCCCCCCCCCCC(=O)NCC[N+](C)(CCC(=O)NCCN)CCC(=O)NCCN)nn2)c2cccc(C)n2)c(N2CCC(COc3cc([C@@H](CC(=O)O)C4CC4)ccn3)CC2)c1 [Example 115] | 0.51 nM | 0.51 nM | 0.51 nM
11 | COc1ccc(C(=O)N(CC(C)(C)CCn2cc(CCCCCCCCCCCCCC(=O)NCCN(CCC(=O)NCCN)CCC(=O)NCCN)nn2)c2cccc(C)n2)c(N2CCC(COc3cc([C@@H](CC(=O)O)C4CC4)ccn3)CC2)c1 [Example 116] | 0.21 nM | 0.21 nM | 
12 | COc1ccc(C(=O)N(CC(C)(C)CCn2cc(CCCCCCCCCCCCCC(=O)NCC[N+](C)(CCC(=O)NCCN)CCC(=O)NCCN)nn2)c2cccc(C)n2)c(N2CCC(COc3cc([C@@H](CC(=O)O)C4CC4)ccn3)CC2)c1 [Example 117] | 0.29 nM | 0.29 nM | 
13 | COc1ccc(C(=O)N(CC(C)(C)CCn2cc(CCCCCCCCCCCCCCC(=O)NCCN(CCC(=O)NCCN)CCC(=O)NCCN)nn2)c2cccc(C)n2)c(N2CCC(COc3cc([C@@H](CC(=O)O)C4CC4)ccn3)CC2)c1 [Example 118] | 0.33 nM | 0.33 nM | 
14 | COc1ccc(C(=O)N(CC(C)(C)CCn2cc(CCCCCCCCCCCCCCC(=O)NCC[N+](C)(CCC(=O)NCCN)CCC(=O)NCCN)nn2)c2cccc(C)n2)c(N2CCC(COc3cc([C@@H](CC(=O)O)C4CC4)ccn3)CC2)c1 [Example 119] | 0.1 nM | 0.1 nM | 
15 | COc1ccc(F)c(-c2ccc(COc3cccc([C@@H](CC(=O)O)C4CC4)c3)cc2CC(C)(C)Cn2cc(CCCCCCCCCCCC(=O)NCCCN(CC(=O)O)CC(=O)O)nn2)c1 [Example 120] | 1290 nM |  | 
16 | COc1ccc(F)c(-c2ccc(COc3cccc([C@@H](CC(=O)O)C4CC4)c3)cc2CC(C)(C)Cn2cc(CCCCCCCCCCCCCCCC(=O)NCCCN(CC(=O)O)CC(=O)O)nn2)c1 [Example 121] | 5 nM |  | 
17 | COc1ccc(F)c(-c2ccc(COc3cccc([C@@H](CC(=O)O)C4CC4)c3)cc2CC(C)(C)Cn2cc(CCCCCCCCCCCC(=O)NCCC[N+](C)(CC(=O)[O-])CC(=O)O)nn2)c1 (stereo partly drawn) [Example 122] | 1000 nM |  | 
18 | COc1ccc(F)c(-c2ccc(COc3cccc([C@@H](CC(=O)O)C4CC4)c3)cc2CC(C)(C)Cn2cc(CCCCCCCCCCCCCCCC(=O)NCCC[N+](C)(CC(=O)[O-])CC(=O)O)nn2)c1 (stereo partly drawn) [Example 123] | 32.7 nM |  | 
19 | COc1ccc(C(=O)N(CC(C)(C)CCn2cc(CCCCCCCCCC(=O)NCCCN(CC(=O)O)CC(=O)O)nn2)c2cccc(C)n2)c(N2CCC(COc3cc([C@@H](CC(=O)O)C4CC4)ccn3)CC2)c1 [Example 124] | 226 nM | 226 nM | 
20 | COc1ccc(C(=O)N(CC(C)(C)CCn2cc(CCCCCCCCCC(=O)NCCC[N+](C)(CC(=O)[O-])CC(=O)O)nn2)c2cccc(C)n2)c(N2CCC(COc3cc([C@@H](CC(=O)O)C4CC4)ccn3)CC2)c1 (stereo partly drawn) [Example 125] | 617 nM | 617 nM | 
21 | COc1ccc(C(=O)N(CC(C)(C)CCn2cc(CCCCCCCCCCCC(=O)NCCCN(CC(=O)O)CC(=O)O)nn2)c2cccc(C)n2)c(N2CCC(COc3cc([C@@H](CC(=O)O)C4CC4)ccn3)CC2)c1 [Example 126] | 5.81 nM | 5.81 nM | 
22 | COc1ccc(C(=O)N(CC(C)(C)CCn2cc(CCCCCCCCCCCC(=O)NCCC[N+](C)(CC(=O)[O-])CC(=O)O)nn2)c2cccc(C)n2)c(N2CCC(COc3cc([C@@H](CC(=O)O)C4CC4)ccn3)CC2)c1 (stereo partly drawn) [Example 127] | 6.36 nM | 6.36 nM | 
23 | COc1ccc(C(=O)N(CC(C)(C)CCn2cc(CCCCCCCCCCCCCC(=O)NCCCN(CC(=O)O)CC(=O)O)nn2)c2cccc(C)n2)c(N2CCC(COc3cc([C@@H](CC(=O)O)C4CC4)ccn3)CC2)c1 [Example 128] | 1.33 nM | 1.33 nM | 
24 | COc1ccc(C(=O)N(CC(C)(C)CCn2cc(CCCCCCCCCCCCCC(=O)NCCC[N+](C)(CC(=O)[O-])CC(=O)O)nn2)c2cccc(C)n2)c(N2CCC(COc3cc([C@@H](CC(=O)O)C4CC4)ccn3)CC2)c1 (stereo partly drawn) [Example 129] | 0.88 nM | 0.88 nM | 
25 | COc1ccc(C(=O)N(CC(C)(C)CCn2cc(CCCCCCCCCCCCCCC(=O)NCCCN(CC(=O)O)CC(=O)O)nn2)c2cccc(C)n2)c(N2CCC(COc3cc([C@@H](CC(=O)O)C4CC4)ccn3)CC2)c1 [Example 130] | 1.25 nM | 1.25 nM | 
26 | COc1ccc(C(=O)N(CC(C)(C)CCn2cc(CCCCCCCCCCCCCCC(=O)NCCC[N+](C)(CC(=O)[O-])CC(=O)O)nn2)c2cccc(C)n2)c(N2CCC(COc3cc([C@@H](CC(=O)O)C4CC4)ccn3)CC2)c1 (stereo partly drawn) [Example 131] | 0.38 nM | 0.38 nM | 
27 | COc1ccc(C(=O)N(CC(C)(C)CCn2cc(CCCCCCCCCCCCCCCCC(=O)NCCCN(CC(=O)O)CC(=O)O)nn2)c2cccc(C)n2)c(N2CCC(COc3cc([C@@H](CC(=O)O)C4CC4)ccn3)CC2)c1 [Example 132] | 0.19 nM | 0.19 nM | 

Reference: patent US20250223281A1, “ANTIDIABETIC COMPOUNDS AND COMPOSITIONS” (REZUBIO PHARMACEUTICALS CO., LTD, priority 2022, published 2025)
